Results reported in publication PMC6008299, “Impact of race on dose selection of molecular-targeted agents in early-phase oncology trials” (British Journal of Cancer, 2018).

Test system: patients with advanced, refractory solid tumours
Assay: Phase I dose-escalation study J102 (Japan): safety, DLT, MTD
Assay type: in vivo
Text: Studies were approved by the Institutional Review Board at the participating institutions and regulatory authorities. Written informed consent in English and Japanese was obtained from all patients prior to enrollment.
Secondary and exploratory objectives were to evaluate PK, tumour response, and PD effects. Treatment-emergent adverse events (TEAE) were graded using the Common Terminology Criteria for Adverse Events version 4.0. A dose-limiting toxicity (DLT) was defined as a grade ≥3 clinically significant toxicity, with the exceptions of grade ≥4 anaemia and prolonged grade 3 neutropenia. Both studies were open-label, phase I dose-escalation studies. In Japan, the study was conducted at a single centre, while the US study was conducted at three sites. […] In the US, an accelerated titration design was used at low doses followed by a mCRM with EWOC. Briefly, the dose was escalated based on safety data in a single patient until a grade 2 or higher toxicity was observed during cycle 1 or the DLT period (days 1–28). […] Prophylactic granulocyte colony-stimulating factor and antiemetics were not permitted during cycle 1.

[1] = 96 mg, Japanese cohort (56–96 mg group, n = 6)
[2] = 4–32 mg Japanese cohort (n = 12)
[3] = 56–96 mg Japanese cohort (n = 6)

With `CC(=O)N1CCN(c2nc3c(N4CCOCC4)nc(-c4cnc(N)nc4)nc3n2CC(F)(F)F)C[C@H]1C` [DS-7423] the “Hyperglycaemia G3, n patients” value (56 mg, Japanese cohort (56–96 mg group, n = 6)) was 1, the “Diarrhoea G3, n patients” value [1] was 1 and the “Hyperglycaemia G3, n patients” value [1] was 1. The “AST increased (TEAE), n patients” value (160 mg Japanese cohort (n = 3)) was 0, the “Abdominal pain (TEAE), n patients” value (160 mg Japanese cohort (n = 3)) was 1 and the “Back pain (TEAE), n patients” value (160 mg Japanese cohort (n = 3)) was 0. The “Blood creatinine increased (TEAE), n patients” value (“Blood creatinine increased” below) (160 mg Japanese cohort (n = 3)) was 0, the “Constipation (TEAE), n patients” value (160 mg Japanese cohort (n = 3)) was 1 and the “Cough (TEAE), n patients” value (160 mg Japanese cohort (n = 3)) was 2. For the same compound, the “Decreased appetite (TEAE), n patients” value (160 mg Japanese cohort (n = 3)) was 3, the “Decreased appetite G3, n patients” value (160 mg Japanese cohort (n = 3)) was 1 and the “Dehydration (TEAE), n patients” value (160 mg Japanese cohort (n = 3)) was 0. For the same compound, the “Diarrhoea (TEAE), n patients” value (160 mg Japanese cohort (n = 3)) was 2, the “Diarrhoea G3, n patients” value (160 mg Japanese cohort (n = 3)) was 1 and the “Dry mouth (TEAE), n patients” value (160 mg Japanese cohort (n = 3)) was 0. For the same compound, the “Dysgeusia (TEAE), n patients” value (160 mg Japanese cohort (n = 3)) was 2, the “Dyspnea (TEAE), n patients” value (160 mg Japanese cohort (n = 3)) was 1 and the “Edema (TEAE), n patients” value (160 mg Japanese cohort (n = 3)) was 1. For the same compound, the “Fatigue (TEAE), n patients” value (160 mg Japanese cohort (n = 3)) was 1, the “Hyperglycaemia (TEAE), n patients” value (160 mg Japanese cohort (n = 3)) was 1 (1 G3) and the “Hyperglycaemia G3, n patients” value (160 mg Japanese cohort (n = 3)) was 1 (1 G3). The “Lung infection/ pneumonia (TEAE), n patients” value (160 mg Japanese cohort (n = 3)) was 0, the “Nausea (TEAE), n patients” value (160 mg Japanese cohort (n = 3)) was 3 and the “Pyrexia (TEAE), n patients” value (160 mg Japanese cohort (n = 3)) was 1. The “Rash (TEAE), n patients” value (160 mg Japanese cohort (n = 3)) was 2, the “Stomatitis (TEAE), n patients” value (160 mg Japanese cohort (n = 3)) was 2 and the “Vomiting (TEAE), n patients” value (160 mg Japanese cohort (n = 3)) was 2. The “AST increased (TEAE), n patients” value (240 mg Japanese cohort (n = 6)) was 0, the “Abdominal pain (TEAE), n patients” value (240 mg Japanese cohort (n = 6)) was 1 and the “Back pain (TEAE), n patients” value (240 mg Japanese cohort (n = 6)) was 1. For the same compound, the “Blood creatinine increased” value (240 mg Japanese cohort (n = 6)) was 0, the “Constipation (TEAE), n patients” value (240 mg Japanese cohort (n = 6)) was 1 and the “Cough (TEAE), n patients” value (240 mg Japanese cohort (n = 6)) was 1. For the same compound, the “Decreased appetite (TEAE), n patients” value (240 mg Japanese cohort (n = 6)) was 4, the “Dehydration (TEAE), n patients” value (240 mg Japanese cohort (n = 6)) was 0 and the “Diarrhoea (TEAE), n patients” value (240 mg Japanese cohort (n = 6)) was 5. The “Dry mouth (TEAE), n patients” value (240 mg Japanese cohort (n = 6)) was 1, the “Dysgeusia (TEAE), n patients” value (240 mg Japanese cohort (n = 6)) was 3 and the “Dyspnea (TEAE), n patients” value (240 mg Japanese cohort (n = 6)) was 0. The “Edema (TEAE), n patients” value (240 mg Japanese cohort (n = 6)) was 3, the “Fatigue (TEAE), n patients” value (240 mg Japanese cohort (n = 6)) was 2 and the “Hyperglycaemia (TEAE), n patients” value (240 mg Japanese cohort (n = 6)) was 1 (1 G4). For the same compound, the “Hyperglycaemia G4, n patients” value (240 mg Japanese cohort (n = 6)) was 1 (1 G4), the “Lung infection/ pneumonia (TEAE), n patients” value (240 mg Japanese cohort (n = 6)) was 1 (1 G3) and the “Lung infection/ pneumonia G3, n patients” value (240 mg Japanese cohort (n = 6)) was 1 (1 G3). The “Nausea (TEAE), n patients” value (240 mg Japanese cohort (n = 6)) was 6, the “Pyrexia (TEAE), n patients” value (240 mg Japanese cohort (n = 6)) was 2 and the “Rash (TEAE), n patients” value (240 mg Japanese cohort (n = 6)) was 5. The “Stomatitis (TEAE), n patients” value (240 mg Japanese cohort (n = 6)) was 6, the “Vomiting (TEAE), n patients” value (240 mg Japanese cohort (n = 6)) was 3 and the “AST increased (TEAE), n patients” value [2] was 0. For the same compound, the “Abdominal pain (TEAE), n patients” value [2] was 1, the “Back pain (TEAE), n patients” value [2] was 1 and the “Blood creatinine increased” value [2] was 1. For the same compound, the “Constipation (TEAE), n patients” value [2] was 3, the “Cough (TEAE), n patients” value [2] was 1 and the “Decreased appetite (TEAE), n patients” value [2] was 7. For the same compound, the “Dehydration (TEAE), n patients” value [2] was 0, the “Diarrhoea (TEAE), n patients” value [2] was 6 and the “Dry mouth (TEAE), n patients” value [2] was 0. The “Dysgeusia (TEAE), n patients” value [2] was 3, the “Dyspnea (TEAE), n patients” value [2] was 2 and the “Edema (TEAE), n patients” value [2] was 2. For the same compound, the “Fatigue (TEAE), n patients” value [2] was 5, the “Hyperglycaemia (TEAE), n patients” value [2] was 0 and the “Lung infection/ pneumonia (TEAE), n patients” value [2] was 0. The “Nausea (TEAE), n patients” value [2] was 6, the “Pyrexia (TEAE), n patients” value [2] was 0 and the “Rash (TEAE), n patients” value [2] was 3. For the same compound, the “Stomatitis (TEAE), n patients” value [2] was 3, the “Vomiting (TEAE), n patients” value [2] was 4 and the “AST increased (TEAE), n patients” value [3] was 1. For the same compound, the “Abdominal pain (TEAE), n patients” value [3] was 1, the “Back pain (TEAE), n patients” value [3] was 0 and the “Blood creatinine increased” value [3] was 0. For the same compound, the “Constipation (TEAE), n patients” value [3] was 1, the “Cough (TEAE), n patients” value [3] was 1 and the “Decreased appetite (TEAE), n patients” value [3] was 2. The “Dehydration (TEAE), n patients” value [3] was 0, the “Diarrhoea (TEAE), n patients” value [3] was 4 and the “Dry mouth (TEAE), n patients” value [3] was 1. For the same compound, the “Dysgeusia (TEAE), n patients” value [3] was 1, the “Dyspnea (TEAE), n patients” value [3] was 0 and the “Edema (TEAE), n patients” value [3] was 1. For the same compound, the “Fatigue (TEAE), n patients” value [3] was 3, the “Hyperglycaemia (TEAE), n patients” value [3] was 2 and the “Lung infection/ pneumonia (TEAE), n patients” value [3] was 0. For the same compound, the “Nausea (TEAE), n patients” value [3] was 1, the “Pyrexia (TEAE), n patients” value [3] was 0 and the “Rash (TEAE), n patients” value [3] was 4. The “Stomatitis (TEAE), n patients” value [3] was 1, the “Vomiting (TEAE), n patients” value [3] was 1 and the “Grade 3 DLT” value (Japanese study, 240-mg cohort) was “lung infections and hyperglycaemia”. It also gave an MTD (Japanese study, Asian patients) of 240 mg.
